According to patent publication US20070093483A1, “Use of derivatives of 2, 4-dihydro-[1,2,4] triazole-3-thione as inhibitors of the enzyme myeloperoxidase (mpo)” (ASTRAZENECA AB, priority 2003, published 2007):

What follows are molecules tested against T1, human MPO (Homo sapiens, UniProt P05164) (assay: MPO inhibition screen (TMB oxidation, absorbance), with or without added tyrosine). Conditions: in the presence of tyrosine (final 8 uM); human MPO 2.5 nM; H2O2 100 μM; pH 6.5.
T1 sequence (P05164 49-745): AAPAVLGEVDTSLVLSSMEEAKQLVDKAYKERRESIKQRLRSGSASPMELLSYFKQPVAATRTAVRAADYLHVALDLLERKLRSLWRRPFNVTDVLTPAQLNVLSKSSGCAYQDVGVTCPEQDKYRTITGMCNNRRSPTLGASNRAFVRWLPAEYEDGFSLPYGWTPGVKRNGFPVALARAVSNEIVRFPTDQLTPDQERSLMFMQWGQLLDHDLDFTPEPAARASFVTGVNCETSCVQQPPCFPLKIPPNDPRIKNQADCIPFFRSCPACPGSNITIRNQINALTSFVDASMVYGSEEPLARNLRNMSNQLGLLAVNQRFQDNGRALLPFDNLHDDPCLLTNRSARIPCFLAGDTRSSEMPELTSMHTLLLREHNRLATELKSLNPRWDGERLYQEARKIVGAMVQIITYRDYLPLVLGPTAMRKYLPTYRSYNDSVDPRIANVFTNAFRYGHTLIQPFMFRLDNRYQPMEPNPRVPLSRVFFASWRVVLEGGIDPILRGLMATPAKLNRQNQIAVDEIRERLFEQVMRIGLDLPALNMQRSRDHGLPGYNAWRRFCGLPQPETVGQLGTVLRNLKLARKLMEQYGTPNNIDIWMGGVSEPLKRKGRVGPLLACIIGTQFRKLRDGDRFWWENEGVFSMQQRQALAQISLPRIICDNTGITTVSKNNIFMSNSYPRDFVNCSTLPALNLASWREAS
Assay type: biochemical
Method: Methods for the determination of MPO inhibitory activity are disclosed in co-pending patent application WO 02/090575. The pharmacological activity of compounds according to the invention was tested in the following screen in which the compounds were either tested alone or in the presence of added tyrosine:
Assay buffer: 20 mM sodium/potassium phosphate buffer pH 6.5 containing 10 mM taurine and 100 mM NaCl.
Developing reagent: 2 mM 3,3 ′,5,5′-tetramethylbenzidine (TMB), 200 μM KI, 200 mM acetate buffer pH 5.4 with 20% DNF.
To 10 μl of diluted compounds in assay buffer, 40 μl of human MPO (final concentration 2.5 nM), with or without 20 μM tyrosine (final concentration, if present, 8 uM), was added and the mixture was incubated for 10 minutes at ambient temperature. Then 50 μl of H2O2 (final concentration 100 μM), or assay buffer alone as a control, were added. After incubation for 10 minutes at ambient temperature, the reaction was stopped by adding 10 μl 0.2 mg/ml of catalase (final concentration 18 μg/ml). The reaction mixture was left for an additional 5 minutes before 100 μl of TMB developing reagent was added. The amount of oxidised 3,3′,5,5′-tetramethylbenzidine formed was then measured after about 5 minutes using absorbance spectroscopy at about […]. IC50 values were then determined using standard procedures.
`COc1ccc(OCc2n[nH]c(=S)n2CC2CCCO2)cc1` (stereo not shown) [Example 20, 5-(4-Methoxyphenoxymethyl)-4-(2-tetrahydrofuran-2-yl-methyl)-2,4-dihydro-[1,2,4]triazole-3-thione] showed an IC50 of 11.3 µM.
Work on `OCC(c1ccccc1)c1n[nH]c(=S)n1-c1ccccc1` (stereo not shown) [Example 57, 5-(2-Hydroxy-1-phenylethyl)-4-phenyl-2,4-dihydro-[1,2,4]triazole-3-thione] yielded an IC50 of 23.6 µM.
Molecule `Fc1ccc(-n2c(Cc3ccccc3Cl)n[nH]c2=S)cc1` [Example 29, 5-(2-Chlorobenzyl)-4-(4-fluorophenyl)-2,4-dihydro-[1,2,4]triazole-3-thione] has an IC50 of 3.9 µM.
With `Cc1ccccc1-n1c(Cc2c[nH]c3ccccc23)n[nH]c1=S` [Example 74, 5-(1H-Indol-3-ylmethyl)-4-(2-methylphenyl)-2,4-dihydro-[1,2,4]triazole-3-thione] the IC50 was 7.2 µM.
